Results as given in patent US20130183268A1, “DRUG COMBINATIONS WITH FLUORO-SUBSTITUTED OMEGA-CARBOXYARYL DIPHENYL UREA FOR THE TREATMENT AND PREVENTION OF DISEASES AND CONDITIONS” (BAYER HEALTHCARE LLC, priority 2010, published 2013).

Legend:
[1] = Metabolite profile, incubation of [14C]regorafenib with liver microsomes (rat); format: in vitro ADME, Wistar rat; settings: [14C]regorafenib 20 μM, liver microsomes 0.5 mg/mL, 60 min
Method: (§1) N-oxide (M-2), hydroxymethyl (M-3), de-methylated (M-4) and N-oxide-demethylated (M-5) metabolites of the fluoro-substituted diaryl urea of Formula (I) are shown below. They were identified as metabolites of regorafenib in vitro upon incubation with liver enzymes of various mammalian species (man, dog, rat, mouse). Studies reveal that its metabolites show high protein binding in man and animal species (data not shown). [table]

[2] = Metabolite profile, incubation of [14C]regorafenib with liver microsomes (dog); format: in vitro ADME, Beagle dog; settings: [14C]regorafenib 20 μM, liver microsomes 0.5 mg/mL, 60 min
[3] = Metabolite profile, incubation of [14C]regorafenib with liver microsomes (man); format: in vitro ADME; settings: [14C]regorafenib 20 μM, liver microsomes 0.5 mg/mL, 60 min
Method: as §1

[4] = Pharmacokinetics in patients after 160 mg regorafenib co-precipitate tablet; settings: for AUC Day 21 / Cmax Day 21: analyte in plasma, 160 mg regorafenib co-precipitate tablet daily, day 21, n = 9, geometric mean; for systemic exposure: colon cancer patients, 160 mg coprecipitate tablets daily for 21 days; for fold increase in Cmax / fold increase in the AUC: continuous qd dosing for 19 days, in comparison to the first dose; for Fold change AUC / Fold change Cmax: day 21 versus day 1
[5] = Metabolite profile, incubation of [14C]regorafenib with liver microsomes (mouse); format: in vitro ADME, NMRI mouse; settings: [14C]regorafenib 20 μM, liver microsomes 0.5 mg/mL, 60 min
Method: as §1

[6] = analyte in plasma after 160 mg regorafenib co-precipitate tablet, day 1, n = 9, geometric mean

% of radioactivity, Wistar rat [1] [%] | % of radioactivity, Beagle dog [2] [%] | % of radioactivity, Man [3] [%] | AUC Day 1 [4, 6] [ng·h/mL] | Cmax Day 1 [4, 6] [ng/mL] | AUC Day 21 [4] [ng·h/mL] | Cmax Day 21 [4] [ng/mL] | systemic exposure [4] | fold increase in Cmax [4] [fold] | fold increase in the AUC [4] [fold] | Fold change AUC [4] | Fold change Cmax [4] | % of radioactivity, NMRI mouse [5] [%] | SMILES
5.4 | 3.6 | 29.7 | 24000 | 764 | 55400 | 3570 | very similar to regorafenib | 5 | 2 | 2.3 | 4.7 | 26.9 | CNC(=O)c1cc(Oc2ccc(NC(=O)Nc3ccc(Cl)c(C(F)(F)F)c3)c(F)c2)cc[n+]1[O-] [Example M-2, 4{4-[3-(4-chloro-3-trifluoromethylphenyl)-ureido]-3-fluorophenoxy}-1-hydroxy-pyridine-2-carboxylic acid methylamide]
19 | 25.6 | 7.7 | – | – | – | – | – | – | – | – | – | 12 | O=C(Nc1ccc(Cl)c(C(F)(F)F)c1)Nc1ccc(Oc2ccnc(C(=O)NCO)c2)cc1F [Example M-3]
– | – | – | – | 75.5 | 51800 | 3140 | very similar to regorafenib | 42 | 25 | 25.1 | 41.6 | – | NC(=O)c1cc(Oc2ccc(NC(=O)Nc3ccc(Cl)c(C(F)(F)F)c3)c(F)c2)cc[n+]1[O-] [Example M-5, 4{4-[3-(4-chloro-3-trifluoromethylphenyl)-ureido]-3-fluorophenoxy}-1-hydroxy-pyridine-2-carboxylic acid amide]
